This note sets out measurements from patent publication US6761896B1, “Skin cosmetic care system and method” (Unilever Home & Personal Care USA, division of Conopco, Inc., priority 1998, dated 2004).

Assay [1] deals with normal human keratinocytes. In words: Keratinocyte proliferation measured by DNA content (monolayer cultures). The format is cell-based. How it is done:
The cells used in these studies are normal human keratinocytes and pig skin organ cultures. The normal human keratinocytes isolated from neonatal foreskins by trypsin treatment were growth in DME medium/5% fetal calf serum in the presence of mitomycin C treated 3T3 mouse fibroblasts of establishing dividing colonies. Keratinocytes were grown under these conditions until their third passage. For the experiments, third passage keratinocytes were plated into a serum-free keratincoyte growth medium (KGM; obtained form Clonetics, San Diego, Calif.) containing 0.15 mM calcium. Neonatal human fibroblasts were obtained from Clonetics and grown in Dulbecco's Minimum essential medium (DMEM) containing 10% fetal calf serum. Experiments were conducted in cells between passage numbers 4-10. Keratinocytes were plated in the middle 60 wells of 96 well plates (3000 cells/well). 24 hrs later, the plates were placed on top, in the middle of the magnet (bar or Bioflex) and grown for a further 4 days until the cells become 70-80% confluent. Medium was changed every 2 or 3 days. Control plates were placed on top of a nonmagnetic metal plate and the test plates were placed on top of the bar magnet (North or South side up) or in the middle of the Bioflex magnet. In some studies where the growth of cells were measured as a function of magnetic force, plates were placed on top of one another on top of the magnet such that the bottom plate is closest to the magnet (highest force) and the top plate is the furthest away from the magnet (lowest magnetic force). Studies to assess the effects of North and South magnets were carried out in different incubators to avoid the influence of one magnet on the other. After 4 days of growth, the plates were removed from the incubator, washed 2 times with phosphate buffered saline (PBS), and incubated with 100 ul of a bisbenzimide H 33258 solution (obtained from Calbiochem—stock solution was prepared at 1 mg/ml distilled water,'stored in dark at 4° C. for no longer than 1 week). After 15 min of incubation in the dark at room temperature, fluorescence was measured on a Millipore Cytofluor 2000b (ex/em=360/460 nm). The DNA content was calculated using a standard of calf thymus DNA and expressed as ug/well or as % of control wells which were not exposed to magnets. In all the studies using monolayer cultures mean+/−standard deviation of at least 24 different wells were used to calculate statistical significance using Students t-test. Example 3 evaluated the synergy between lactic acid and magnetic field in inducing the proliferation of keratinocytes. In this study, using in vitro keratinocyte cultures, 2 mM lactic acid increased proliferation by 5.4%. This increase was not statistically significant. […]

In the next assay the test system is pig skin dermis. In words: DNA synthesis (3H-thymidine) of pig skin organ cultures, dermis. It counts as cell-based. On the procedure:
Freshly excised 2-3 week old piglet skins were obtained from Buckshire Farms, Pa. The pig skins were washed exhaustively first with soap and then with 10× antibiotic containing medium (penicillin, streptomycin). The pig skins were then dermatomed at 200 microns thickness. Seven (7) mm punch biopsies were made from these washed pig skins. The biopsies are then washed again with the 10× antibiotic medium and finally with normal DMEM (2 washes). Three (3) biopsies were incubated in each transwell plates, epidermal side up, with 1 ml of serum free DMEM fed from the bottom of the plates. Experiments were started 3 days after the biopsies were equilibrated under these conditions. Three (3) days after equilibrating the pig skin organ cultures prepared as described above, the medium was removed, 1 ml of fresh medium was added, and the wells were treated with different concentrations of lactic acid by adding from a 100 fold concentrated stock in water, directly into the medium. Simultaneous with the addition of lactic acid, selected cultures were also exposed to the South or North pole of a bar magnet or to the Bioflex magnet. The magnets were placed on top of the culture dish to expose the epidermis directly (the organ culture is carried out with the epidermis side on top). Three (3) days later, medium was changed, lactic acid was re-added, and 10 uCi ^3H-thymidine was added to each well. Plates were incubated for a further 24 hrs. At the end of the incubation period, biopsies were removed, washed in PBS for 1 hr with shaking, and incubated overnight in 10 ml of 2M sodium bromide with shaking to split the epidermis from the dermis. The biopsies were washed with PBS, and the epidermis was peeled off from dermis carefully using a scalpel. The epidermis and dermis were digested with 1 ml of 0.5N NaOH overnight at 50 C, 200 ul was used for counting the radioactivity. The DNA synthesis rate was calculated as cpm/7 mm punch biopsy for dermis or epidermis and in some experiments expressed also as % of controls. All organ culture experiments were conducted with at least 6 replicates, and the mean+/−standard deviation was calculated for statistical analysis using Students t-test. In example 7, dermal proliferation was measured as a function of lactic acid and magnetic pole treatment.

Where [2] appears, read: Example 7, dermis, LA + North pole.
The mark [3] stands for this setting: Example 7, dermis, LA + South pole.

Molecules are shown by their SMILES.

`CC(O)C(=O)O` (stereo not drawn) [LA, lactic acid]: the “DNA content, Average” value in assay [1] (2 mM lactic acid + BIOflex magnet) was found to be 277; in assay [1] (2 mM lactic acid, no magnet), 254. Also, the “stimulation of keratinocyte proliferation” value in assay [1] (2 mM lactic acid in the presence of BIOflex magnet, statistically significant) is recorded as 15%. Further, the “increase in keratinocyte proliferation” value in assay [1] (2 mM lactic acid, no magnet, not statistically significant) was found to be 5.4%. Further, the “DNA SYNTHESIS (CPM/BIOPSY) MEAN +/- STD” value is recorded as 15306 +/− 4656 CPM/BIOPSY in the assay on pig skin dermis (Example 7, dermis, 0.2 mM LA, no magnet); 16886 +/− 2227 CPM/BIOPSY with pig skin dermis (setting [2]); 17244 +/− 4259 CPM/BIOPSY with pig skin dermis (setting [3]). The “DNA synthesis AS % OF CONTROL” value in the assay with pig skin dermis (setting [2]) is 178%; in the assay with pig skin dermis (setting [3]) it was 182%. For the same compound, in the assay with pig skin dermis (Example 7, combinations of magnet with lactic acid), the “synergy of magnet with lactic acid in the dermis” value is listed as “no synergy”. In addition, the “effect on dermal proliferation” value in the assay on pig skin dermis (Example 7, lactic acid alone) is reported as “significant stimulation”. Further, the activity at 200 µM in the assay on pig skin dermis (Sus scrofa, Example 7, dermis, 0.2 mM LA, no magnet, read-out: DNA synthesis AS % OF CONTROL) was found to be 162%.
